Measured values: US20030138423A1, “Method of treating inflammation with HIV-1 protease inhibitors and their derivatives” (CEDARS-SINAI MEDICAL CENTER, priority 2001, published 2003)
“Also recorded” adds a separate entry of the source.

What was measured:
TNF-α = test: LPS-induced TNF-α production in THP-LTR-Luc cells, ELISA; format: cell-based; conditions: THP-LTR-Luc cells (FIG. 9 legend)
Procedure: After five hours of LPS stimulation, supernatants from HMEC were analyzed for TNF-α production by using an ELISA kit (obtained from R&D Systems; Minneapolis, Minn.) according to manufacturer's instructions. All data for TNF-α represent the average of triplicate samples ±S.D. Each experiment was repeated at least twice.

20S proteasome = 20S proteasome (Mus musculus, UniProt O55234); conditions: literature; cited from earlier work
IL-6 = test: LPS-induced IL-6 luciferase activation in HMEC; format: cell-based, human; conditions: 1-hour pretreatment
Description: Interleukin-6 (IL-6) is a known proinflammatory cytokine that mediates development of LPS-induced sepsis and septic shock.

HMEC = test: LDH release (cell death) in HMEC; format: cell-based, human; conditions: pretreatment prior to LPS stimulation
Procedure: For the quantification of nelfinavir-induced cell death, lactate dehydrogenase (LDH) activity in HMEC culture supernatants was measured with a cytotoxicity detection kit (obtained from Roche Diagnostics; Indianapolis, Ind., hereinafter “Roche”) according to manufacturer's instructions. Percentage of LDH activity in the supernatants was calculated according to the following: [(Experimental Value—LDH activity released from untreated cells)/(Maximum Releasable LDH Activity in the Cells by 1% Triton X-100-LDH Activity Released from Untreated Cells)]×100.

NF-κB [1] = test: LPS-induced NF-κB luciferase activation in HMEC; conditions: pretreatment before LPS, nelfinavir 1, 3, 6 μg/ml
HIV-LTR = test: LPS-induced HIV-LTR luciferase activation in HMEC; conditions: nelfinavir 1, 3, 6 μg/ml (FIG. 2) or 0.5, 2, 4 μg/ml (FIG. 6)
[2] = biological target: T1, erythrocyte 20S proteasome (Homo sapiens, UniProt P28074); test: 20S Proteasome Assay, Suc-LLVY-AMC substrate; format: biochemical; conditions: SDS-preactivated erythrocyte 20S proteasome
T1 construct: purchased Biomol Research Laboratories, Inc; host or cells: erythrocytes (purified native complex)
Procedure: The effect of nelfinavir on 20S proteasome activity was assessed using a 20S Proteasome Assay Kit (obtained from Biomol Research Laboratories, Inc.; Plymouth Meeting, Pa.) according to manufacturer's instructions. Briefly, erythrocyte 20S proteasome that is preactivated by SDS was added to Suc-LLVY-AMC fluorogenic peptide substrate, which is used to measure the chymotrypsin like peptidase activity, with or without nelfinavir. A proteasome inhibitor, lactacystin, was included as a control. The microtiter plate was read at an approximate excitation of 360 nm and at emission 460 nm. All data represent the average of triplicate samples ±S.D.

NF-κB [3] = test: TNF-α-induced NF-κB activation in HMEC; format: cell-based, human; conditions: one-hour pretreatment, TNF-α 100 ng/ml
NF-κB [4] = test: PSM-induced NF-κB luciferase activation in HMEC; format: cell-based, human; conditions: one-hour pretreatment
NF-κB [5] = test: STF-induced NF-κB luciferase activation in HMEC; format: cell-based, human; conditions: one-hour pretreatment
IκB-α = test: LPS-induced IκB-α degradation in HMEC, Western blot; format: cell-based, human; conditions: HMEC pretreated one hour, LPS 30, 60, 90 minutes
Procedure: Conditioned endothelial cells were lysed for 30 minutes on ice in a lysis buffer containing 0.1 mM ethylenediamine tetra-acetic acid (“EDTA,” available from Sigma), 10 mM NaF, 1 mM Na3VO4, 0.1% Triton X-100, 20 mM Tris-HCl (pH 7.5), and 1 μg/ml each of the protease inhibitors pepstatin, leupeptin, aprotinin, antipain, and chymostatin (all available from Roche).
Following lysis, cell debris was removed by centrifugation (14,000×g, 4° C., 1-2 minutes). Protein concentrations were determined using the Bradford assay. 50 μg of total protein was added in Laemmli buffer, boiled for 5 minutes, resolved by 10% sodium dodecyl sulphate polyacrylamide gel electrophoresis (“SDS-PAGE”) in Tris/glycine/SDS buffer (25 mM Tris, 250 mM glycine, 0.1% SDS), and blotted onto Immunobilon P transfer membranes (obtained from Amersham Pharmacia Biotech UK Ltd.; Buckinghamshire, England, hereinafter “Amersham”) (100 V, 1.5 hours, 4° C.). […] Membranes were thereafter and washed five times in PBST, and bands were detected using ECL reagents (obtained from Amersham) according to manufacturer's description.
Upon exposure of immune system cells to bacterial and mycobacterial antigens, IκB-α degradation is the key step before NF-κB activation. We assessed the effect of nelfinavir pretreatment of HMEC on LPS-induced IκB-α degradation. […] IκB-α degradation was assessed by Western Blot analysis for phosphorylated IκB-α.

[6] = system: lymphocytic choriomeningitis virus (LCMV); conditions: mice infected with LCMV, literature; cited from earlier work
[7] = system: MB-1 (X) and/or LMP7 proteasome subunits; conditions: vinyl sulfone inhibitor 125I-NLVS, literature; cited from earlier work

Structure (SMILES)	LPS-induced TNF-α production (TNF-α)	chymotrypsin-like activity of the 20S proteasome (20S proteasome)	LPS-induced IL-6 luciferase activation (IL-6)	cell death (LDH release) (HMEC)	LPS-induced NF-κB activation (percent NF-κB luciferase activity) (NF-κB [1])	LPS-induced HIV-LTR activation (percent HIV-LTR luciferase activity) (HIV-LTR)	chymotrypsin-like activity of 20S proteasome [2]	TNF-α-induced NF-κB activation (NF-κB [3])	PSM-induced NF-κB activation (percent NF-κB luciferase activity) (NF-κB [4])	STF-induced NF-κB activation (percent NF-κB luciferase activity) (NF-κB [5])	LPS-induced IκB-α degradation (IκB-α)	LCMV replication [6]	protection of proteasome subunits from covalent active site modification [7]
CC(C)(C)NC(=O)[C@@H]1CN(Cc2cccnc2)CCN1C[C@@H](O)C[C@@H](Cc1ccccc1)C(=O)N[C@H]1c2ccccc2C[C@H]1O [indinavir]	blocked TNF-α production	no inhibition at all	blocked LPS-induced IL-6 luciferase activation										
Cc1c(O)cccc1C(=O)N[C@@H](CSc1ccccc1)[C@H](O)CN1C[C@H]2CCCC[C@H]2C[C@H]1C(=O)NC(C)(C)C [nelfinavir]	blocked production to a lesser extent	no inhibition at all	blocked LPS-induced IL-6 luciferase activation	without inducing apoptosis or death of the cells; also recorded: did not induce cell death; also recorded: not induced	blocked LPS-induced NF-κB activation in a dose-dependent manner; also recorded: decreased the NF-κB activity	blocked LPS-induced HIV-LTR activation in a dose-dependent manner	did not inhibit the chymotrypsin-like activity of 20s proteasome	down-regulated	blocked NF-κB activation; also recorded: blocked both STF and PSM	blocked NF-κB activation; also recorded: blocked both STF and PSM	markedly less LPS-induced IκB-α degradation; also recorded: delayed the degradation; also recorded: a delay in LPS-induced IκB-α degradation		
CC(C)c1nc(CN(C)C(=O)N[C@H](C(=O)N[C@@H](Cc2ccccc2)C[C@H](O)[C@H](Cc2ccccc2)NC(=O)OCc2cncs2)C(C)C)cs1 [ritonavir]	blocked production to a lesser extent	selectively inhibit the chymotrypsin-like activity of the 20S proteasome	blocked LPS-induced IL-6 luciferase activation		blocked LPS-induced NF-κB activation; also recorded: more potent than indinavir; also recorded: down-regulation of LPS-induced NF-κB activation			down-regulated				not affected	protected the MB-1 (X) and/or LMP7 proteasome subunits from covalent active site modification
CC(C)(C)NC(=O)[C@@H]1C[C@@H]2CCCC[C@@H]2CN1C[C@@H](O)[C@H](Cc1ccccc1)NC(=O)[C@H](CC(N)=O)NC(=O)c1ccc2ccccc2n1 [saquinavir]	blocked TNF-α production	inhibited chymotrypsin-like activity to a significantly lesser degree	blocked LPS-induced IL-6 luciferase activation		blocked LPS-induced NF-κB activation; also recorded: more potent than indinavir; also recorded: down-regulation of LPS-induced NF-κB activation			down-regulated					
